Measured values from patent US9302999B2, “Substituted triazoles as herbicides” (E. I. DU PONT DE NEMOURS AND COMPANY, priority 2012, dated 2016).

Key:
Type in all cases: in vivo
[1] = system: velvetleaf (Abutilon theophrasti); assay: Test A pre-/postemergence: velvetleaf; conditions: for Velvetleaf plant response rating: Postemergence; for Plant response rating, Velvetleaf: Preemergence
Procedure, shortened: (§1)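 Soil medium was loam blended with sand; treatments pre- and postemergence were applied concurrently, postemergence at one- to two-leaf stage. Approximately ten days in greenhouse preceded visual comparison with untreated controls, scored 0 (no effect) to 100 (complete control).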

[2] = system: pigweed (Amaranthus retroflexus); assay: Test A pre-/postemergence: pigweed; conditions: for Pigweed plant response rating: Postemergence; for Plant response rating, Pigweed: Preemergence
Procedure, shortened: as §1

[3] = system: sedge, umbrella (small-flower umbrella sedge, Cyperus difformis); assay: Test C flooded paddy test: sedge, umbrella; conditions: scale 0 to 100 (0 no effect, 100 complete control)
Procedure, shortened: (§2)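 Plants were grown to the 2-leaf stage, pots flooded to 3 cm above soil, and test compounds applied directly to the paddy water, with that depth held throughout. After 13 to 15 days in a greenhouse, injury was visually rated against controls on a 0 (no effect) to 100 (complete control) scale.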

[4] = system: morningglory (Ipomoea spp.); assay: Test A pre-/postemergence: morningglory; conditions: for Morningglory plant response rating: Postemergence; for Plant response rating, Morningglory: Preemergence
Procedure, shortened: as §1

[5] = system: ducksalad (Heteranthera limosa); assay: Test C flooded paddy test: ducksalad; conditions: scale 0 to 100 (0 no effect, 100 complete control)
Procedure, shortened: as §2

[6] = system: wheat (Triticum aestivum); assay: Test A pre-/postemergence: wheat; conditions: for Wheat plant response rating: Postemergence; for Plant response rating, Wheat: Preemergence
Procedure, shortened: as §1

[7] = system: barnyardgrass (Echinochloa crus-galli); assay: Test C flooded paddy test: barnyardgrass; conditions: scale 0 to 100 (0 no effect, 100 complete control)
Procedure, shortened: as §2

corn (Zea mays) = assay: Test A pre-/postemergence: corn; conditions: for Corn plant response rating: Postemergence; for Plant response rating, Corn: Preemergence
Procedure, shortened: as §1

rice (Oryza sativa) = assay: Test C flooded paddy test: rice; conditions: scale 0 to 100 (0 no effect, 100 complete control)
Procedure, shortened: as §2

[8] = system: crabgrass, large (large crabgrass, Digitaria sanguinalis); assay: Test A pre-/postemergence: crabgrass, large; conditions: for Crabgrass, Large plant response rating: Postemergence; for Plant response rating, Crabgrass, Large: Preemergence
Procedure, shortened: as §1

[9] = system: barnyardgrass (Echinochloa crus-galli); assay: Test A pre-/postemergence: barnyardgrass; conditions: for Barnyardgrass plant response rating: Postemergence; for Plant response rating, Barnyardgrass: Preemergence
Procedure, shortened: as §1

[10] = system: foxtail, giant (giant foxtail, Setaria faberii); assay: Test A pre-/postemergence: foxtail, giant; conditions: for Foxtail, Giant plant response rating: Postemergence; for Plant response rating, Foxtail, Giant: Preemergence
Procedure, shortened: as §1

[11] = 125 g ai/ha, 0 to 100 scale, 0 is no effect, 100 is complete control
[12] = 500 g ai/ha, visual rating on 0 to 100 scale (0 no effect, 100 complete control), approximately ten days
[13] = 125 g ai/ha, 0 to 100 scale (0 no effect, 100 complete control)
[14] = 500 g ai/ha, 0 to 100 scale, 0 is no effect, 100 is complete control
[15] = Flood (flooded paddy test), 62 g ai/ha, visual rating after 13 to 15 days
[16] = Flood (flooded paddy test), 125 g ai/ha, visual rating after 13 to 15 days
[17] = Flood (flooded paddy test), 250 g ai/ha, visual rating after 13 to 15 days

Cc1nn(-c2cccc(Cl)c2)nc1C(=O)c1cccc(C(F)(F)F)c1 [Compound 76]
Velvetleaf plant response rating [1, 11]: 0
Velvetleaf plant response rating [1, 12]: 10
Plant response rating, Velvetleaf [1, 13]: 0
Plant response rating, Velvetleaf [1, 14]: 0
Pigweed plant response rating [2, 11]: 50
Pigweed plant response rating [2, 12]: 60
Plant response rating, Pigweed [2, 13]: 0
Plant response rating, Pigweed [2, 14]: 20
Plant response rating, Sedge, Umbrella [3, 15]: 0
Plant response rating, Sedge, Umbrella [3, 16]: 0
Plant response rating, Sedge, Umbrella [3, 17]: 0
Plant response rating, Sedge, Umbrella ([3]; Flood, 31 g ai/ha): 0
Morningglory plant response rating [4, 11]: 10
Morningglory plant response rating [4, 12]: 20
Plant response rating, Morningglory [4, 13]: 0
Plant response rating, Morningglory [4, 14]: 0
Plant response rating, Ducksalad [5, 15]: 0
Plant response rating, Ducksalad [5, 16]: 0
Plant response rating, Ducksalad [5, 17]: 0
Plant response rating, Ducksalad ([5]; Flood, 31 g ai/ha): 0
Wheat plant response rating [6, 11]: 0
Wheat plant response rating [6, 12]: 20
Plant response rating, Wheat [6, 13]: 0
Plant response rating, Wheat [6, 14]: 0
Plant response rating, Barnyardgrass [7, 15]: 0
Plant response rating, Barnyardgrass [7, 16]: 0
Plant response rating, Barnyardgrass [7, 17]: 0
Plant response rating, Barnyardgrass ([7]; Flood, 31 g ai/ha): 0
Corn plant response rating (corn (Zea mays); [11]): 10
Corn plant response rating (corn (Zea mays); [12]): 20
Plant response rating, Corn (corn (Zea mays); [13]): 0
Plant response rating, Corn (corn (Zea mays); [14]): 0
Plant response rating, Rice (rice (Oryza sativa); [15]): 0
Plant response rating, Rice (rice (Oryza sativa); [16]): 0
Plant response rating, Rice (rice (Oryza sativa); [17]): 0
Plant response rating, Rice (rice (Oryza sativa); Flood, 31 g ai/ha): 0
Crabgrass, Large plant response rating [8, 11]: 10
Crabgrass, Large plant response rating [8, 12]: 30
Plant response rating, Crabgrass, Large [8, 13]: 10
Plant response rating, Crabgrass, Large [8, 14]: 40
Barnyardgrass plant response rating [9, 11]: 0
Barnyardgrass plant response rating [9, 12]: 20
Plant response rating, Barnyardgrass [9, 13]: 0
Plant response rating, Barnyardgrass [9, 14]: 0
Foxtail, Giant plant response rating [10, 11]: 10
Foxtail, Giant plant response rating [10, 12]: 20
Plant response rating, Foxtail, Giant [10, 13]: 10
Plant response rating, Foxtail, Giant [10, 14]: 80

Cc1nn(-c2ccncc2)nc1C(=O)c1cccc(C(F)(F)F)c1 [Compound 22]
Velvetleaf plant response rating [1, 11]: 10
Velvetleaf plant response rating [1, 12]: 30
Plant response rating, Velvetleaf [1, 13]: 0
Plant response rating, Velvetleaf [1, 14]: 0
Pigweed plant response rating [2, 11]: 50
Pigweed plant response rating [2, 12]: 80
Plant response rating, Pigweed [2, 13]: 10
Plant response rating, Pigweed [2, 14]: 10
Plant response rating, Sedge, Umbrella [3, 15]: 0
Plant response rating, Sedge, Umbrella [3, 16]: 0
Plant response rating, Sedge, Umbrella [3, 17]: 0
Plant response rating, Sedge, Umbrella ([3]; Flood, 31 g ai/ha): 0
Morningglory plant response rating [4, 11]: 10
Morningglory plant response rating [4, 12]: 20
Plant response rating, Morningglory [4, 13]: 0
Plant response rating, Morningglory [4, 14]: 0
Plant response rating, Ducksalad [5, 15]: 0
Plant response rating, Ducksalad [5, 16]: 0
Plant response rating, Ducksalad [5, 17]: 0
Plant response rating, Ducksalad ([5]; Flood, 31 g ai/ha): 0
Wheat plant response rating [6, 11]: 10
Plant response rating, Wheat [6, 13]: 0
Plant response rating, Wheat [6, 14]: 0
Plant response rating, Barnyardgrass [7, 15]: 0
Plant response rating, Barnyardgrass [7, 16]: 0
Plant response rating, Barnyardgrass [7, 17]: 0
Plant response rating, Barnyardgrass ([7]; Flood, 31 g ai/ha): 0
Corn plant response rating (corn (Zea mays); [11]): 10
Corn plant response rating (corn (Zea mays); [12]): 20
Plant response rating, Corn (corn (Zea mays); [13]): 0
Plant response rating, Corn (corn (Zea mays); [14]): 0
Plant response rating, Rice (rice (Oryza sativa); [15]): 0
Plant response rating, Rice (rice (Oryza sativa); [16]): 0
Plant response rating, Rice (rice (Oryza sativa); [17]): 0
Plant response rating, Rice (rice (Oryza sativa); Flood, 31 g ai/ha): 0
Crabgrass, Large plant response rating [8, 11]: 40
Crabgrass, Large plant response rating [8, 12]: 60
Plant response rating, Crabgrass, Large [8, 13]: 10
Plant response rating, Crabgrass, Large [8, 14]: 40
Barnyardgrass plant response rating [9, 11]: 10
Barnyardgrass plant response rating [9, 12]: 20
Plant response rating, Barnyardgrass [9, 13]: 0
Plant response rating, Barnyardgrass [9, 14]: 10
Foxtail, Giant plant response rating [10, 11]: 20
Foxtail, Giant plant response rating [10, 12]: 50
Plant response rating, Foxtail, Giant [10, 13]: 20
Plant response rating, Foxtail, Giant [10, 14]: 80

Cc1nn(-c2cccc(C(F)(F)F)c2)nc1Oc1ccnc(C(F)(F)F)c1 [Compound 40]
Velvetleaf plant response rating [1, 11]: 70
Velvetleaf plant response rating [1, 12]: 100
Plant response rating, Velvetleaf [1, 13]: 10
Plant response rating, Velvetleaf [1, 14]: 20
Pigweed plant response rating [2, 11]: 100
Pigweed plant response rating [2, 12]: 100
Plant response rating, Pigweed [2, 13]: 90
Plant response rating, Pigweed [2, 14]: 100
Plant response rating, Sedge, Umbrella [3, 15]: 75
Plant response rating, Sedge, Umbrella [3, 16]: 80
Plant response rating, Sedge, Umbrella [3, 17]: 80
Plant response rating, Sedge, Umbrella ([3]; Flood, 31 g ai/ha): 70
Morningglory plant response rating [4, 11]: 70
Morningglory plant response rating [4, 12]: 100
Plant response rating, Morningglory [4, 13]: 0
Plant response rating, Morningglory [4, 14]: 10
Plant response rating, Ducksalad [5, 15]: 30
Plant response rating, Ducksalad [5, 16]: 60
Plant response rating, Ducksalad [5, 17]: 70
Plant response rating, Ducksalad ([5]; Flood, 31 g ai/ha): 30
Wheat plant response rating [6, 11]: 20
Wheat plant response rating [6, 12]: 30
Plant response rating, Wheat [6, 13]: 0
Plant response rating, Wheat [6, 14]: 20
Plant response rating, Barnyardgrass [7, 15]: 20
Plant response rating, Barnyardgrass [7, 16]: 30
Plant response rating, Barnyardgrass [7, 17]: 30
Plant response rating, Barnyardgrass ([7]; Flood, 31 g ai/ha): 20
Corn plant response rating (corn (Zea mays); [11]): 10
Corn plant response rating (corn (Zea mays); [12]): 30
Plant response rating, Corn (corn (Zea mays); [13]): 0
Plant response rating, Corn (corn (Zea mays); [14]): 10
Plant response rating, Rice (rice (Oryza sativa); [15]): 10
Plant response rating, Rice (rice (Oryza sativa); [16]): 20
Plant response rating, Rice (rice (Oryza sativa); [17]): 25
Plant response rating, Rice (rice (Oryza sativa); Flood, 31 g ai/ha): 0
Crabgrass, Large plant response rating [8, 11]: 80
Crabgrass, Large plant response rating [8, 12]: 90
Plant response rating, Crabgrass, Large [8, 13]: 100
Plant response rating, Crabgrass, Large [8, 14]: 100
Barnyardgrass plant response rating [9, 11]: 30
Barnyardgrass plant response rating [9, 12]: 40
Plant response rating, Barnyardgrass [9, 13]: 30
Plant response rating, Barnyardgrass [9, 14]: 80
Foxtail, Giant plant response rating [10, 11]: 60
Foxtail, Giant plant response rating [10, 12]: 90
Plant response rating, Foxtail, Giant [10, 13]: 100
Plant response rating, Foxtail, Giant [10, 14]: 100

Cc1nn(-c2ccc([N+](=O)[O-])cc2)nc1C(=O)c1cccc(C(F)(F)F)c1 [Compound 41]
Velvetleaf plant response rating [1, 11]: 10
Velvetleaf plant response rating [1, 12]: 50
Plant response rating, Velvetleaf [1, 13]: 10
Plant response rating, Velvetleaf [1, 14]: 10
Pigweed plant response rating [2, 11]: 30
Pigweed plant response rating [2, 12]: 80
Plant response rating, Pigweed [2, 13]: 20
Plant response rating, Pigweed [2, 14]: 50
Plant response rating, Sedge, Umbrella [3, 15]: 0
Plant response rating, Sedge, Umbrella [3, 16]: 0
Plant response rating, Sedge, Umbrella [3, 17]: 0
Plant response rating, Sedge, Umbrella ([3]; Flood, 31 g ai/ha): 0
Morningglory plant response rating [4, 11]: 10
Morningglory plant response rating [4, 12]: 10
Plant response rating, Morningglory [4, 13]: 0
Plant response rating, Morningglory [4, 14]: 10
Plant response rating, Ducksalad [5, 15]: 0
Plant response rating, Ducksalad [5, 16]: 0
Plant response rating, Ducksalad [5, 17]: 0
Plant response rating, Ducksalad ([5]; Flood, 31 g ai/ha): 0
Wheat plant response rating [6, 11]: 0
Wheat plant response rating [6, 12]: 10
Plant response rating, Wheat [6, 13]: 0
Plant response rating, Wheat [6, 14]: 0
Plant response rating, Barnyardgrass [7, 15]: 0
Plant response rating, Barnyardgrass [7, 16]: 0
Plant response rating, Barnyardgrass [7, 17]: 0
Plant response rating, Barnyardgrass ([7]; Flood, 31 g ai/ha): 0
Corn plant response rating (corn (Zea mays); [11]): 10
Corn plant response rating (corn (Zea mays); [12]): 20
Plant response rating, Corn (corn (Zea mays); [13]): 0
Plant response rating, Corn (corn (Zea mays); [14]): 0
Plant response rating, Rice (rice (Oryza sativa); [15]): 0
Plant response rating, Rice (rice (Oryza sativa); [16]): 0
Plant response rating, Rice (rice (Oryza sativa); [17]): 0
Plant response rating, Rice (rice (Oryza sativa); Flood, 31 g ai/ha): 0
Crabgrass, Large plant response rating [8, 11]: 10
Crabgrass, Large plant response rating [8, 12]: 30
Plant response rating, Crabgrass, Large [8, 13]: 20
Plant response rating, Crabgrass, Large [8, 14]: 70
Barnyardgrass plant response rating [9, 11]: 10
Barnyardgrass plant response rating [9, 12]: 10
Plant response rating, Barnyardgrass [9, 13]: 10
Plant response rating, Barnyardgrass [9, 14]: 20
Foxtail, Giant plant response rating [10, 11]: 10
Foxtail, Giant plant response rating [10, 12]: 20
Plant response rating, Foxtail, Giant [10, 13]: 40
Plant response rating, Foxtail, Giant [10, 14]: 70
